Where a name gives a salt, the structure may show the parent alone.
Molecular target: IKZF2 (Helios) (Homo sapiens (Human), UniProt Q96SW2+Q9UKS7)
Assay: Prolabel quantification of IKZF2 protein levels in 293GT cells

IKZF2 (Helios), sequence (Q9UKS7 whole entry): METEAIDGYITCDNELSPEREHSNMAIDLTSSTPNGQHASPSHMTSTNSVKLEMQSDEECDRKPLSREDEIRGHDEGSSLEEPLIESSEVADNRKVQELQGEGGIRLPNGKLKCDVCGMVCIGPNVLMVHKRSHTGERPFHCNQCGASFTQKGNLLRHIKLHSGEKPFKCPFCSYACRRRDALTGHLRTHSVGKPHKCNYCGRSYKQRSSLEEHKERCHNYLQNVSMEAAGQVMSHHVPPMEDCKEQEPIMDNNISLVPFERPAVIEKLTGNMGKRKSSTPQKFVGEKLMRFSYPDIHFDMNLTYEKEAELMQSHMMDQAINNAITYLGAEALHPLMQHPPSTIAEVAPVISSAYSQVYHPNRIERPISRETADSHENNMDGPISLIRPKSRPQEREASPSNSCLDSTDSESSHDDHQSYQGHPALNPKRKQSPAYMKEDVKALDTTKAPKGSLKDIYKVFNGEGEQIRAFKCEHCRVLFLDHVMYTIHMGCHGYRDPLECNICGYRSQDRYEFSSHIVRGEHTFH
IKZF2 (Helios), sequence (Q96SW2 whole entry): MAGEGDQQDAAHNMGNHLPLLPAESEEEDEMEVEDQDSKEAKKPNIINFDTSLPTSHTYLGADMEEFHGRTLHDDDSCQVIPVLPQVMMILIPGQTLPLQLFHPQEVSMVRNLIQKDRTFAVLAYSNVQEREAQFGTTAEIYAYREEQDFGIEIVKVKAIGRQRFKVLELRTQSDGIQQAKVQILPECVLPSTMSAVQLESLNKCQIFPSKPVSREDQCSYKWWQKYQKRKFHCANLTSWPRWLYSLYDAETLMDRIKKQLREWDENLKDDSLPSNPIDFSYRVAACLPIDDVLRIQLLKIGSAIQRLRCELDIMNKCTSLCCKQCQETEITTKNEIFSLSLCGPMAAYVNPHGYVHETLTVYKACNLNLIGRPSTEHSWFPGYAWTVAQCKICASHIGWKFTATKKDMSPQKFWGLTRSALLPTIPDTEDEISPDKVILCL
IKZF2 (Helios), sequence (Q16531 whole entry partner): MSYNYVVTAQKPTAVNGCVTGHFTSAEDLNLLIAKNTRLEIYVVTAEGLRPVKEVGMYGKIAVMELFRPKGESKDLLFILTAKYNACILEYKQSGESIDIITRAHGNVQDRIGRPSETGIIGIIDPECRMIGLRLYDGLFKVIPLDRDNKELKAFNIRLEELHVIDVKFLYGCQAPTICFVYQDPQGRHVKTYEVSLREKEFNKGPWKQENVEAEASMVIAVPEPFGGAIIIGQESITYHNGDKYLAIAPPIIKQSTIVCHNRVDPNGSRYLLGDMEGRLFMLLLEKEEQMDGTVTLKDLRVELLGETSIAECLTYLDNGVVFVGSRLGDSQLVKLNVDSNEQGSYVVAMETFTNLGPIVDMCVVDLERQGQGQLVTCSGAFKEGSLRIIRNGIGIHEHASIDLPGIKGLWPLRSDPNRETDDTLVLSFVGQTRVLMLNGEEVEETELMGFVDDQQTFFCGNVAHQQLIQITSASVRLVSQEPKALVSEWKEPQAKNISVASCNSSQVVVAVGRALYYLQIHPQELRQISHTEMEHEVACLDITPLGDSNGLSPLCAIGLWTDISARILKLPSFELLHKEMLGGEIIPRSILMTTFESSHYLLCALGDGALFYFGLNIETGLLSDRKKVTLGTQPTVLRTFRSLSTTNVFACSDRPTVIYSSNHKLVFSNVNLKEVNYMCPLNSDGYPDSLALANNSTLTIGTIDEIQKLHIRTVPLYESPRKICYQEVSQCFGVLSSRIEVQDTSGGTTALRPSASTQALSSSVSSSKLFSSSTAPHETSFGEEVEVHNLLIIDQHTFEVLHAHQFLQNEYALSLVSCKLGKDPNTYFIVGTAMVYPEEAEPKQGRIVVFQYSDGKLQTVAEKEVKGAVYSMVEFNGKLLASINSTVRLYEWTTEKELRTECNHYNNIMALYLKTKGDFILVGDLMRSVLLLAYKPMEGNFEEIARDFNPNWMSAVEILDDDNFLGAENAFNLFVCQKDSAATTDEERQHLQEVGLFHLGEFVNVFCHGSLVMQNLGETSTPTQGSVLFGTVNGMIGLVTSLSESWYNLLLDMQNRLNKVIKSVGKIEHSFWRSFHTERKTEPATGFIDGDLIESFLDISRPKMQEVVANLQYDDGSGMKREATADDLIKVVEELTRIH

Row | Dmax at 10 µM (24 h, read-out: IKZF2 % protein reduction at 10 μM, 24 h) | Structure (SMILES) | EC50 (read-out: IKZF2 EC50, Pro-label assay, 293GT cells, degradation)
1 | 65% | CN[C@H]1CCCC[C@@H]1N(C)c1ccc2c(c1)CN(C1CCC(=O)NC1=O)C2=O (mixture of isomers) [I-9, Racemic trans-3-(5-(methyl(-2-(methylamino)cyclohexyl)amino)-1-oxoisoindolin-2-yl)piperidine-2,6-dione HC(O)OH Salt] | –
2 | – | CC(C)CN[C@H]1CCCC[C@@H]1Nc1ccc2c(c1)CN(C1CCC(=O)NC1=O)C2=O (stereo partly drawn) [I-15, 3-(5-(((1S,2S)-2-(isobutylamino)cyclohexyl)amino)-1-oxoisoindolin-2-yl)piperidine-2,6-dione] | 940 nM
